Data: US20260234116A1, “CYTOTOXIC EPOXYKETONE COMPOUNDS, PRECURSORS, COMPOSITIONS, AND METHODS OF USE” (Memorial Sloan-Kettering Cancer Center, priority 2023, published 2026)
Like-named read-outs stand apart in the source and are kept apart here.

Tests used:
[1] = system: EL4 mouse lymphoma; assay: Cytotoxicity of epoxyketones, CellTitre-Glo, 48 h; assay type: cell-based; conditions: EL4, 48 h
Description: (§1) Cytotoxicity Assays. Cancer cell lines (ATCC: U266 multiple myeloma, EL4 mouse lymphoma, Raji B-cell lymphoma) were cultured in Roswell Park Memorial Institute (RPMI) medium supplemented with 10% fetal bovine serum (FBS), 2 mM L-glutamine, 100 IU/mL penicillin, 100 μg/mL nonessential amino acids, 1 mM sodium pyruvate, and 57 μM β-mercaptoethanol. Cells (90 μL) were seeded in the inner 60 wells of an opaque-wall, clear flat-bottom 96-well plate (Corning/Falcon, 351177) at 20,000 cells per well. The outer perimeter wells were filled with 200 μL PBS to reduce evaporation in the central 60 wells. Epoxyketones 12 (20 mM in DMSO) were diluted in RPMI media to 1 mM (5% DMSO final concentration). Each epoxyketone was then diluted log-fold into 10 concentrations with 5% DMSO in RPMI. Each epoxyketone solution (10 μL) was added to the cells for a 0.5% DMSO final concentration across all wells and final epoxyketone concentrations of 100-0.005 μM. Negative control wells were treated with 10 μL of 5% DMSO in RPMI. Cells were incubated with compounds for 48 h, then cytotoxicity was measured with the CellTitre-Glo assay (Promega G9241).

[2] = system: Raji B-cell lymphoma; assay: Cytotoxicity of epoxyketones, CellTitre-Glo, 48 h; assay type: cell-based; conditions: Homo sapiens
Description: as §1

[3] = system: U266 multiple myeloma; assay: Cytotoxicity of epoxyketones, CellTitre-Glo, 48 h; assay type: cell-based; conditions: Homo sapiens, U-266, U266, 48 h
Description: as §1

[4] = system: EL4 lymphoma cells; conditions: reported (prepared by total synthesis); cited from earlier work
[5] = system: chymotrypsin-like activity of the proteasome, Jurkat cell lysates; assay: Proteasome inhibition assay (abcam Proteasome Activity Assay Kit); assay type: biochemical; conditions: 10 μM concentration, 1 h at 37° C.
Description: Epoxyketones 12 were analyzed for proteasome inhibition using a Proteasome Activity Assay Kit (abcam ab107921). The protocol was followed as described by the manufacturer, except that the proteasome sample supplied in the kit was diluted by 10-fold more than indicated in the manual to increase the number of samples that could be analyzed per kit. Thus, the supplied proteasome sample was resuspended in 100 μL ddH2O, then further diluted with 900 μL of the supplied assay buffer. The supplied proteasome inhibitor, MG-132 (benzyl [(2S)-4-methyl-1-{[(2S)-4-methyl-1-{[(2S)-4-methyl-1-oxopentan-2-yl]amino}-1-oxopentan-2-yl]amino}-1-oxopentan-2-yl]carbamate; structure illustrated below), was also diluted 10-fold to a working concentration of 1 mM in DMSO. The epoxyketones 12 and epoxomicin positive control (Selleck Chemicals) were also diluted to working stocks of 1 mM in DMSO. Proteasome samples (99 μL) were added to a white, opaque 96-well plate (PerkinElmer, OptiPlate-96) and treated with 1 μL of compound solutions (10 μM final concentration). Samples were incubated for 1 h at 37° C. then analyzed for fluorescence (λ^ex 350 nm, λ^em 440 nm) on a plate reader (Molecular Devices Spectramax M3). Three separate assay kits were used as biological replicates. Data were normalized to the average signal from the no-inhibitor negative control. […]

Structure (SMILES): CC(C)CCCCC(=O)N[C@@H](CO)C(=O)N[C@@H](CC(C)C)C(=O)[C@@]1(C)CO1 [Compound 12a, N-[(1S)-2-Hydroxy-1-{[(2S)-4-methyl-1-[(2R)-2-methyloxiran-2-yl]-1-oxopentan-2-yl]carbamoyl}ethyl]-6-methylheptanamide]
- IC50 ([1]; read-out: IC50): 440 nM
- IC50 ([1]; read-out: log IC50 (converted)): 407 nM
- IC50 ([2]; read-out: IC50): 200 nM
- IC50 ([2]; read-out: log IC50 (converted)): 195 nM
- IC50 ([3]; read-out: IC50): 230 nM
- IC50 ([3]; read-out: log IC50 (converted)): 229 nM
- IC50 [4]: 260 ± 50 nM
- inhibition of proteasome activity [5]: at a level comparable to that of epoxomicin
